Test results from BindingDB's records for doi:10.1021/cb9002865 (Vanderbilt University, 2010).

Molecular target: Receptor protein serine/threonine kinase (Danio rerio, UniProt B3DJG0)
Experiment: Kinase assay Dorsalization

Sequence of Receptor protein serine/threonine kinase (B3DJG0 whole entry): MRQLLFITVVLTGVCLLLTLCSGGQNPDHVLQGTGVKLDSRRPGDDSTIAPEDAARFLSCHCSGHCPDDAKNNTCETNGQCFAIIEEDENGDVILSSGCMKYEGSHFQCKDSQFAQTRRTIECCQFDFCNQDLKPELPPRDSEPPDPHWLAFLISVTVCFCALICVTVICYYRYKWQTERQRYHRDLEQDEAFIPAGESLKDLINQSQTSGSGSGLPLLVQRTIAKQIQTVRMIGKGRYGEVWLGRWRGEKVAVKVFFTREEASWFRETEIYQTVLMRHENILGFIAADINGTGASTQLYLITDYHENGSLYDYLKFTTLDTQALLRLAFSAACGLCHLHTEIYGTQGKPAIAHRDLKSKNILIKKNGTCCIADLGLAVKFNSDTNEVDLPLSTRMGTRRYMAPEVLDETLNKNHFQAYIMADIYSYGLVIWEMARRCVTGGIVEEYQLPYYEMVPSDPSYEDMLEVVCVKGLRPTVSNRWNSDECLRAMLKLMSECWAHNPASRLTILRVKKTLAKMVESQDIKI

CN(C)CCCOc1ccc(-c2cnc3c(-c4ccnc5ccccc45)cnn3c2)cc1 [DMH3]
EC100: 1000 nM

c1cc(-c2cnn3cc(-c4ccc(OCCN5CCOCC5)cc4)cnc23)ccn1
EC100: 1000 nM

c1ccc2c(-c3cnn4cc(-c5ccc(OCCN6CCOCC6)cc5)cnc34)ccnc2c1 [4-(2-(4-(3-(quinolin-4-yl)pyrazolo[1,5-a]pyrimidin-6-yl)phenoxy)ethyl)morpholine]
EC100: 100 nM

CC(C)Oc1ccc(-c2cnc3c(-c4ccnc5ccccc45)cnn3c2)cc1 [4-(6-(4-isopropoxyphenyl)pyrazolo[1,5-a]pyrimidin-3-yl)quinoline]
EC100: 200 nM

COc1ccc(-c2cnc3c(-c4ccccc4)cnn3c2)cc1 [dorsomorphin (6LP)]
EC100: > 50000 nM

c1ccc2c(-c3cnn4cc(-c5ccc(N6CCNCC6)cc5)cnc34)ccnc2c1 [LDN-193189]
EC100: 3000 nM
